Laboratory results reported in the supplement of paper PMC10307832.

What was measured:
Assay in all cases: relative viability (nuclei count vs DMSO), 5 days (fraction); higher = more cells survive
[1] = compound: CC1=C(C(=NN1)C)CC2=C(C3=C(S2)N(C(=O)N(C3=O)C)CC(C)C)C(=O)N4C[C@@H](CO4)O + O=C(CCCCCCC(=O)Nc1ccccc1)NO [Vorinostat] (partner 1 µM)
In short: (§1)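 Lung cancer cell lines were pin-tool dosed in 1536-well plates on the day after seeding, with either a lone drug or a fixed anchor-drug dose plus five library-drug doses (not always all listed) in √10 steps. Nuclei were counted on 4× images after 5 days. Relative viability is the ratio of treated-well to vehicle-well nuclei counts, with each value a median of duplicate plates.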

[2] = compound: CC1=C(C(=NN1)C)CC2=C(C3=C(S2)N(C(=O)N(C3=O)C)CC(C)C)C(=O)N4C[C@@H](CO4)O + COc1cc2c(Oc3ccc(NC(=O)C4(C(=O)Nc5ccc(F)cc5)CC4)cc3F)ccnc2cc1OCCCN1CCOCC1 [Foretinib] (partner 0.25 µM)
In short: as §1

IDH-C35 + Vorinostat = compound: Cc1ccccc1C(C(=O)NC1CCCCC1)N(C(=O)Cn1ccnc1C)c1cccc(F)c1 [IDH-C35] + O=C(CCCCCCC(=O)Nc1ccccc1)NO [Vorinostat] (partner 1 µM)
In short: as §1

[3] = compound: CC1=C(C(=NN1)C)CC2=C(C3=C(S2)N(C(=O)N(C3=O)C)CC(C)C)C(=O)N4C[C@@H](CO4)O + Cc1nc(NC(=O)N2CCC[C@H]2C(N)=O)sc1-c1ccnc(C(C)(C)C(F)(F)F)c1 [Alpelisib] (partner 2 µM)
In short: as §1

Cell Line: UMC-11
- relative viability ([1]; first compound 0.0025 µM): 0.41
- relative viability ([1]; first compound 0.007906 µM): 0.429
- relative viability ([1]; first compound 0.025 µM): 0.396
- relative viability ([1]; first compound 0.07906 µM): 0.464
- relative viability ([1]; first compound 0.25 µM): 0.424
- relative viability ([2]; first compound 0.0025 µM): 1.16
- relative viability ([2]; first compound 0.007906 µM): 1.17
- relative viability ([2]; first compound 0.025 µM): 0.997
- relative viability ([2]; first compound 0.07906 µM): 1.07
- relative viability ([2]; first compound 0.25 µM): 1.08
- relative viability (IDH-C35 + Vorinostat; first compound 0.08 µM): 0.373
- relative viability (IDH-C35 + Vorinostat; first compound 0.253 µM): 0.468
- relative viability (IDH-C35 + Vorinostat; first compound 0.8 µM): 0.435
- relative viability (IDH-C35 + Vorinostat; first compound 2.53 µM): 0.434
- relative viability (IDH-C35 + Vorinostat; first compound 8 µM): 0.46
- relative viability ([3]; first compound 0.0025 µM): 1.03
- relative viability ([3]; first compound 0.007906 µM): 0.897
- relative viability ([3]; first compound 0.025 µM): 0.75
- relative viability ([3]; first compound 0.07906 µM): 0.986
- relative viability ([3]; first compound 0.25 µM): 0.977
